Assay results: article PMC10830684, “Effect of Oregon grape root extracts on P-glycoprotein mediated transport in in vitro cell lines” (Journal of Pharmacy & Pharmaceutical Sciences, 2024)
Counter-ions that a name gives are not always drawn. Like-named read-outs stand apart in the source and are kept apart here.

Columns and labels:
[1] = target: T1, P-glycoprotein (MDR1) (Homo sapiens, UniProt P08183); assay: Transepithelial transport of berberine and berbamine across MDCKII-MDR1 cells; type: in vitro ADME; conditions: dog, MDCK-MDR1
T1 construct: expressed in transfected cells; host or cells: MDCKII-MDR1 (Madin-Darby canine kidney II cells overexpressing MDR1)
Protocol: Transport of ^3H-CsA and ^3H-digoxin (0.5 µM and 1.0 µCi), MDR1 substrates, were performed using transport buffer consisting of HBSS with 10 mM HEPES and 25 mM D-glucose at a pH of 6.8 for the apical (A) compartment and 7.4 for the basolateral (B) compartment. Experiments were performed at 37°C, 5% CO2, and 95% relative humidity. Cells in the Transwell® inserts were washed 3 times with a transport buffer and allowed to equilibrate for 30 min prior to the addition of test compounds. […] To evaluate the efflux mechanism involved with berberine and berbamine, 100 µM of berberine and berbamine were placed in the donor chamber and 100 µL samples were collected in the receiver chamber at 0, 0.5, 1.0, 1.5, 2.0, 2.5, and 3.0 h and analyzed by HPLC. Each experiment was performed in duplicate and repeated for each condition tested. […] A 100 µL sample was taken from the donor chamber at 3 h in order to calculate the mass balance of radioactivity to determine if adsorption to the cell culture transport apparatus had occurred. Each sample was placed in 0.9 mL of scintillation fluor (Cytoscint ES, ICN, Cosa Mesa, CA, USA) and read on a Beckman LS 6500 (Palo Alto, CA, USA) scintillation counter for ^3H activity. […]
The apparent permeability (Papp) was calculated using the following equation [40]: Papp=dQ/dt×1/A×C0 […]

[2] = Transepithelial transport of berberine and berbamine across Caco-2 cells; type: in vitro ADME, human; conditions: human
Protocol: (§1) Transport of ^3H-CsA and ^3H-digoxin (0.5 µM and 1.0 µCi), MDR1 substrates, were performed using transport buffer consisting of HBSS with 10 mM HEPES and 25 mM D-glucose at a pH of 6.8 for the apical (A) compartment and 7.4 for the basolateral (B) compartment. Experiments were performed at 37°C, 5% CO2, and 95% relative humidity. Cells in the Transwell® inserts were washed 3 times with a transport buffer and allowed to equilibrate for 30 min prior to the addition of test compounds. […] To evaluate the efflux mechanism involved with berberine and berbamine, 100 µM of berberine and berbamine were placed in the donor chamber and 100 µL samples were collected in the receiver chamber at 0, 0.5, 1.0, 1.5, 2.0, 2.5, and 3.0 h and analyzed by HPLC. Each experiment was performed in duplicate and repeated for each condition tested. For experiments performed in “non-sink” conditions, 100 µL aliquots were taken from the donor and receiver chambers at the beginning and from the receiver chamber at 0.5, 1.0, 1.5, 2.0, 2.5, and 3.0 h. An equal volume of 100 µL was replaced in the chamber at each sample time point. “Non-sink” conditions were performed when less than 10% of compound is transported across cells during the transport experiment such that a concentration gradient was always present. For the “sink” condition experiments, the entire receiver volume was replaced at each time interval and a 100 µL aliquot was taken from the receiver volume for scintillation counting. A 100 µL sample was taken from the donor chamber at 3 h in order to calculate the mass balance of radioactivity to determine if adsorption to the cell culture transport apparatus had occurred. Each sample was placed in 0.9 mL of scintillation fluor (Cytoscint ES, ICN, Cosa Mesa, CA, USA) and read on a Beckman LS 6500 (Palo Alto, CA, USA) scintillation counter for ^3H activity. For berberine and berbamine analysis, 100 µL aliquot was assayed by HPLC.
(§2) The apparent permeability (Papp) was calculated using the following equation [40]: Papp=dQ/dt×1/A×C0
(§3) Where A is the surface area of the monolayer (4.71 cm^2) and C0 is the initial concentration of radiolabeled probe substrate in the donor compartment. dQ/dt is the slope of the steady-state rate constant. The efflux ratio was determined by dividing the Papp in the B to A direction by the Papp in the A to B direction: Efflux ratio=PappB to A/PappA to B
(§4) A Waters 2690 separations module with a Model 996 photodiode array detector with the Millennium 32 Chromatograph Manager version 3.0 software (Waters Corporation, Milford, MA, USA) was used for HPLC analysis. […] All the standards and samples were filtered (0.2 µm) prior to injection. Ten µL was injected onto a 250 × 4.6 mm i.d., […], Zorbax Eclipse X DB-C18 Column (Agilent Technologies, Palo Alto, CA, USA) with a 3.9 × 20 mm i.d. Symmetry® C18 guard column, with an isocratic mobile phase of 32:68 acetonitrile:buffer. The buffer consisted of 30 mM ammonium acetate and 14 mM TEA and was adjusted to pH 4.85 with acetic acid. A flow rate of 1 mL/min and UV absorption at 254 nm was used for analysis. The retention time of berberine and berbamine was 7.84 min and 3.03 min, respectively. The cumulative amount of transport was determined using the corresponding peak area for berberine or berbamine. The cumulative amount of berberine or berbamine transported across the cell membrane was evaluated as a functionof time. The Papp was calculated by the following equation: […]

[3] = test system: Caco-2 cells; assay: as above; type: in vitro ADME, human
Protocol: as §1, §2, §3, §4

[4] = test system: Caco-2 cells; assay: LDH leakage cytotoxicity assay in Caco-2 cells; type: cell-based, human; conditions: 300 µM, 4 hours exposure
Text: (§5) We initiated cytotoxicity experiments with the Caco-2, MDCKII-MDR1 and MDCKII-wild type cells on Day 7 (Caco-2) and Day 4 (MDCKII-MDR1 and MDCKII-wild type) after the initial plating of the cells at 2.5 × 10^3 cells/well in 48-well plates (Becton Dickinson, Franklin Lakes, NJ, USA). See details of preparation for the cytotoxicity experiments in Supplementary Material.
(§6) We initiated cytotoxicity experiments with the Caco-2, MDCKII-MDR1 and MDCKII-wild type cells on Day 7 (Caco-2) and Day 4 (MDCKII-MDR1 and MDCKII-wild type) after the initial plating of the cells at 2.5x10^3 cells/well in 48-well plates (Becton Dickinson, Franklin Lakes, NJ, USA). Stock solutions of 10 mM berberine or berbamine were prepared by dissolving the compounds in DMSO (berberine) or distilled water (berbamine).
(§7) The LDH enzymatic activities were assayed using the method of Mitchell et al.(1). […] Enzyme leakage into the medium was expressed as the percentage of total cellular LDH. The MTT (3-(4,5-dimethythiazole-2yl)-2,5-diphenyl tetrazolium bromide) reduction assay was done according to Mosmann (2). This assay was conducted immediately with the same cells used in the LDH study. The results were expressed as the percentage of negative controls.

[5] = test system: MDCKII wild-type cells; assay: MTT cytotoxicity assay in MDCKII wild-type cells; type: cell-based, Canine; conditions: MDCKII-WT cells, 4 hours exposure
Text: as §5
(§8) We initiated cytotoxicity experiments with the Caco-2, MDCKII-MDR1 and MDCKII-wild type cells on Day 7 (Caco-2) and Day 4 (MDCKII-MDR1 and MDCKII-wild type) after the initial plating of the cells at 2.5x10^3 cells/well in 48-well plates (Becton Dickinson, Franklin Lakes, NJ, USA). Stock solutions of 10 mM berberine or berbamine were prepared by dissolving the compounds in DMSO (berberine) or distilled water (berbamine). […] The final concentration of DMSO was 0.003% (v/v), 0.03% (v/v), 0.3% (v/v), 1% (v/v), 1.5% (v/v), and 3% (v/v) DMSO/culture medium for 0.3 μM, 3 μM, 30 μM, 100 μM, ,150 μM, and 300 μM, respectively. The final concentration of ethanol was 0.15% (v/v) ethanol/culture medium. Ketoconazole (75 µM) was used as a positive control and no treatment (medium alone) was used as a negative control for each experiment.
as §7

[6] = target: P-glycoprotein (Homo sapiens, UniProt P08183); assay: Effect on 3H-CsA and 3H-digoxin transport in Caco-2 cells; conditions: Caco-2 cells
[7] = test system: MDCKII-MDR1 cells; assay: MTT cytotoxicity assay in MDCKII-MDR1 cells; type: cell-based, Canine; conditions: 4 hours exposure
Text: as §5, §8, §7

[8] = test system: Caco-2 cells; assay: MTT cytotoxicity assay in Caco-2 cells; type: cell-based, human; conditions: for MTT assay: 4 hours exposure
Text: as §5, §6, §7

[9] = test system: P-gp; design: method as in PMID 12434406; conditions: Caco-2 cells; inhibitor 1 mM; cited from earlier work
[10] = test system: human MDR1 mRNA; assay: Real time RT-PCR of MDR1 mRNA in Caco-2 cells; type: cell-based; conditions: 100 µM, positive control
[11] = 14C-mannitol permeability (monolayer integrity) in MDCKII-MDR1 cells; type: in vitro ADME, Canine; conditions: dog, MDCK-MDR1, read-out: apparent permeability (Papp)
Protocol: (§9) The human intestinal epithelial cell line, LS-180 was purchased from American Type Culture Collection (ATCC) (Manassas, VA, USA) and grown in Minimum Essential Medium supplemented with 10% FBS. The Caco-2 cells were obtained from ATCC. MDCKII-MDR1 and MDCKII wild-type cell lines were a generous gift from Dr. Piet Borst (The Netherlands Cancer Research Institute). Both Caro-2 and MDCKII cells were grown in DMEM, 10% FBS, 0.1 mM non-essential amino acids, and 0.01% penicillin/streptomycin [38, 39]. […] For the transport experiments, cells were seeded, 3.0 × 10^5cells/well, onto 6-well Transwell® inserts 4.71 cm^2 (Corning Costar, Cambridge, MA, USA) and maintained until use on Days 21–25 (Caco-2, passages 23–30) and Days 6–7 (MDCKII-MDR1 and MDCKII wild-type). The integrity of the monolayers was assessed by measuring transepithelial electrical resistance (TEER) using a World Precision Instrument, EVOM (Sarasota, FL, USA) and evaluating ^14C-mannitol transport. […] For the real time RT-PCR, cells were seeded at 6 × 10^5 cells/well (Caco-2) and 1 × 10^6 cells/well (LS-180) onto 6-well Transwell® inserts 4.71 cm^2 and grown for 7 (Caco-2) and 6 (LS-180) days.

[12] = 14C-mannitol permeability (monolayer integrity) in Caco-2 cells; type: in vitro ADME, human; conditions: human, Caco-2 cells, read-out: apparent permeability (Papp)
Protocol: as §9

[13] = test system: Caco-2 cells; assay: as above; type: in vitro ADME, human; conditions: various treatment conditions, throughout the entire experiment
Protocol: as §9

[14] = 14C-mannitol permeability (monolayer integrity) in MDCKII wild-type cells; type: in vitro ADME, Canine; conditions: dog, MDCK, read-out: apparent permeability (Papp)
Protocol: as §9

T1 sequence (P08183 whole entry): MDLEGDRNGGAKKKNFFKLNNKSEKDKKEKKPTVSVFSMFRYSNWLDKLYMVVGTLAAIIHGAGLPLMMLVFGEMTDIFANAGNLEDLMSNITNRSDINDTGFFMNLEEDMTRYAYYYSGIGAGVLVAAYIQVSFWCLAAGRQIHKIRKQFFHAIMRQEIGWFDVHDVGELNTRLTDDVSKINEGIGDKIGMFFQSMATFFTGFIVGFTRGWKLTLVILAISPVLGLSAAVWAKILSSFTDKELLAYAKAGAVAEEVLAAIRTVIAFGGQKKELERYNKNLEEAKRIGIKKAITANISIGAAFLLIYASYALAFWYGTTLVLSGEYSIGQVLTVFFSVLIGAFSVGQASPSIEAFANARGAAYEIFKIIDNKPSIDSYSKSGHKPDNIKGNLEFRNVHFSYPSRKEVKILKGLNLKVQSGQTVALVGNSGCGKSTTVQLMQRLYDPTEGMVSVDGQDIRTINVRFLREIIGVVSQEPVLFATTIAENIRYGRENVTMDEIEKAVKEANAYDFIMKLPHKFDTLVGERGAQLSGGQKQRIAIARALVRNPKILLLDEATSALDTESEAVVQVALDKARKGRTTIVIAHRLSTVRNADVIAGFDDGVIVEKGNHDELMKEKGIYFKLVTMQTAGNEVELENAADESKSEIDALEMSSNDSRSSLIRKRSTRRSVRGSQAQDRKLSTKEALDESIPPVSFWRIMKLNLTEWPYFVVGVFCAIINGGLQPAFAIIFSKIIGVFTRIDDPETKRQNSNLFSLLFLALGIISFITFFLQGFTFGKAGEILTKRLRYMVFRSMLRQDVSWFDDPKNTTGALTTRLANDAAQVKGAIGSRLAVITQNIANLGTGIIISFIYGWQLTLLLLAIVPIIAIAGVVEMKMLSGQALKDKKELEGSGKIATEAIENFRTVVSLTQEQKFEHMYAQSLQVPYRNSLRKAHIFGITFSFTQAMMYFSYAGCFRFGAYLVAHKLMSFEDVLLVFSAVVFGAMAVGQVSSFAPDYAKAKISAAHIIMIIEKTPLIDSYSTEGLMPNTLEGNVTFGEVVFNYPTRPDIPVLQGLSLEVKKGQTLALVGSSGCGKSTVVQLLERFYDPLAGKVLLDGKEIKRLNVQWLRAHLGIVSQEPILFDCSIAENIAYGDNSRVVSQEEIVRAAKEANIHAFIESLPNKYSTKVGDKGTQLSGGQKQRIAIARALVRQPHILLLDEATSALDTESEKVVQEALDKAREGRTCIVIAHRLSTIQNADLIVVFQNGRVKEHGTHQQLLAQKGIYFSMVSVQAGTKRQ
P-glycoprotein, sequence (P08183 whole entry): as above

COc1cc2c3cc1Oc1c(OC)c(OC)cc4c1[C@@H](Cc1ccc(O)c(c1)Oc1ccc(cc1)C[C@@H]3N(C)CC2)N(C)CC4 [Berbamine, berbamine dihydrochloride]
efflux ratio at 3 h, 100 µM [1]: 27.4 ± 5.1 | efflux ratio at 3 h, 100 µM ([2]; Caco-2, 100 µM, Caco-2 cells, read-out: fold increase of Papp B to A compared with A to B): ~30 | efflux ratio at 3 h, 100 µM ([2]; Caco-2, Caco-2 cells, read-out: efflux ratio): 24.2 ± 4.5 | Papp A→B at 3 h, 100 µM ([2]; 100 µM, Caco-2 cells, read-out: Papp A to B direction): 2.49 ×10⁻⁶ cm/s | Papp B→A at 3 h, 100 µM ([2]; 100 µM, Caco-2 cells, read-out: Papp B to A direction): 60.3 ×10⁻⁶ cm/s | transport in the A to B direction ([3]; 100 µM, Caco-2 cells): 0.39 nmol/min | transport in the B to A direction ([3]; 100 µM, Caco-2 cells): 5.94 nmol/min | extent of efflux relative to berberine ([3]; Caco-2 and MDCKII-MDR1 cells): ~5 fold | LDH assay [4]: 43.88 ± 7.44% | MTT assay ([5]; 0.03 µM): □ (%MTT reduction is not significantly decreased compared with the negative control) | MTT assay ([5]; 0.3 µM): □ (%MTT reduction is not significantly decreased compared with the negative control) | MTT assay ([5]; 30 µM): □ (%MTT reduction is not significantly decreased compared with the negative control) | MTT assay ([5]; 100 µM): □ (%MTT reduction is not significantly decreased compared with the negative control) | MTT assay ([5]; 150 µM): □ (%MTT reduction is not significantly decreased compared with the negative control) | MTT assay ([5]; 300 µM): 64.32 ± 13.1% | lowest concentration with significant decrease of B to A transport of 0.5 µM 3H-CsA [6]: 30 µM | MTT assay ([7]; 0.03 µM): □ (%MTT reduction is not significantly decreased compared with the negative control) | MTT assay ([7]; 0.3 µM): □ (%MTT reduction is not significantly decreased compared with the negative control) | MTT assay ([7]; 30 µM): □ (%MTT reduction is not significantly decreased compared with the negative control) | MTT assay ([7]; 100 µM): □ (%MTT reduction is not significantly decreased compared with the negative control) | MTT assay ([7]; 150 µM): □ (%MTT reduction is not significantly decreased compared with the negative control) | MTT assay ([7]; 300 µM): □ (%MTT reduction is not significantly decreased compared with the negative control) | MTT assay ([8]; 0.03 µM): □ (%MTT reduction is not significantly decreased compared with the negative control) | MTT assay ([8]; 0.3 µM): □ (%MTT reduction is not significantly decreased compared with the negative control) | MTT assay ([8]; 30 µM): □ (%MTT reduction is not significantly decreased compared with the negative control) | MTT assay ([8]; 100 µM): □ (%MTT reduction is not significantly decreased compared with the negative control) | MTT assay ([8]; 150 µM): □ (%MTT reduction is not significantly decreased compared with the negative control) | MTT assay ([8]; 300 µM): 64.99 ± 11.46% | earliest time of significant increase in LDH leakage and decrease in MTT reduction ([8]; 300 µM, time-response 2, 4, 6, 8 hr, data not shown): 2 h

COc1cccc2c1C(=O)c1c(O)c3c(c(O)c1C2=O)C[C@@](O)(C(C)=O)C[C@@H]3O[C@H]1C[C@H](N)[C@H](O)[C@H](C)O1 [daunomycin]
inhibition of the efflux of 20 µM berberine [9]: 100%

N[C@@H](Cc1cc(I)c(Oc2cc(I)c(O)c(I)c2)c(I)c1)C(=O)O [levothyroxine]
P-gp (MDR1) mRNA [10]: significantly increase

OC[C@@H](O)[C@@H](O)[C@H](O)[C@H](O)CO [mannitol]
Papp [11]: 2.38 ± 0.13 ×10⁻⁶ cm/s | Papp [12]: 2.09 ± 0.4 ×10⁻⁶ cm/s | transport rate [13]: less than 1 % per hour | Papp [14]: 2.16 ± 0.72 ×10⁻⁶ cm/s

COC(=O)c1ccccc1-c1c2ccc(=N)cc-2oc2cc(N)ccc12 [rhodamine123]
inhibition of the efflux of 20 µM berberine [9]: 100%
